According to ChEMBL document CHEMBL3991601, “The target landscape of clinical kinase drugs” (Science, 2017):
The source made the active and inactive calls. Rule as the data show it, for most assays here: actives have a measured Kd and inactives only a lower limit.

Assays:
[1] = molecular target: Serine/threonine-protein kinase MRCK beta (Homo sapiens, UniProt Q9Y5S2)
Aurora kinase A = molecular target: T1, Aurora kinase A (Homo sapiens, UniProt O14965)
T1 sequence (O14965 whole entry): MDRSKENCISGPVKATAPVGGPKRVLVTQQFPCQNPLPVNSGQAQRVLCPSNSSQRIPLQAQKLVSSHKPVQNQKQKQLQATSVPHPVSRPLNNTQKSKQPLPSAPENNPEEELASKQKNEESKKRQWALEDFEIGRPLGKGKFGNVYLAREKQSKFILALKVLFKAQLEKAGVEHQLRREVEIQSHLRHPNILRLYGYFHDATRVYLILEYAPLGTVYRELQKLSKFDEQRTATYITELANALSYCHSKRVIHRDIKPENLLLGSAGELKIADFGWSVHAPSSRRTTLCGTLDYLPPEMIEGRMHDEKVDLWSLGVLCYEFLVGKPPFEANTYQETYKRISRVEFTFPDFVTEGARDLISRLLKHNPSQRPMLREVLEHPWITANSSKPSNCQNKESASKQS

[2] = molecular target: T2, Bifunctional phosphoribosylaminoimidazole carboxylase/phosphoribosylaminoimidazole succinocarboxamide synthetase (Homo sapiens, UniProt P22234)
T2 sequence (P22234 whole entry): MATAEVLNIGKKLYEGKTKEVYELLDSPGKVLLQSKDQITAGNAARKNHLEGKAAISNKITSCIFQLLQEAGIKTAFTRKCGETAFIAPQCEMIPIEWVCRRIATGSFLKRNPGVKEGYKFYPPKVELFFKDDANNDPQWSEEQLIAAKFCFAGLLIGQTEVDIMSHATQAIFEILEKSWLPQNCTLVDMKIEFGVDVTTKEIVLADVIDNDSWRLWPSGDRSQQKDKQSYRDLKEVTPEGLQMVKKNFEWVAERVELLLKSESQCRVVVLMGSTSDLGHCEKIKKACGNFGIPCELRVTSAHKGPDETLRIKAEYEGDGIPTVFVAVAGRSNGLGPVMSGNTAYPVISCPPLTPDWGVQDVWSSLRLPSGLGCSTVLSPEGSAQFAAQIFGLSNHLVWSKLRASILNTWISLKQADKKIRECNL

[3] = molecular target: Interleukin-1 receptor-associated kinase 1 (Homo sapiens, UniProt P51617)
[4] = molecular target: T3, Interleukin-1 receptor-associated kinase 4 (Homo sapiens, UniProt Q9NWZ3)
T3 sequence (Q9NWZ3 whole entry): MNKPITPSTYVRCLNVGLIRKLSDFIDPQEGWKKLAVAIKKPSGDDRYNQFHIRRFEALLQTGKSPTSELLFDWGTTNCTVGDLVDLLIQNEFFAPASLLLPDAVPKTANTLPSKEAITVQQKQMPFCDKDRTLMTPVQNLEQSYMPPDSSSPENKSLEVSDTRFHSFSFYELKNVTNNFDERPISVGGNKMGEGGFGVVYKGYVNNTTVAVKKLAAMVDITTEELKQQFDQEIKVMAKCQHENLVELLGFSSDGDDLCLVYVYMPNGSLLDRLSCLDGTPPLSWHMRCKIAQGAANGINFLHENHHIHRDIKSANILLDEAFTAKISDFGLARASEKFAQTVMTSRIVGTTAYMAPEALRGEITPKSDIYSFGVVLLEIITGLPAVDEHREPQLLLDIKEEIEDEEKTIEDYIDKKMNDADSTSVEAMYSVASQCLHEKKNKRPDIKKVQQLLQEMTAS

[5] = molecular target: Fibroblast growth factor receptor 1 (Homo sapiens, UniProt P11362)
[6] = molecular target: T4, Ras-related protein Rab-27A (Homo sapiens, UniProt P51159)
T4 sequence (P51159 whole entry): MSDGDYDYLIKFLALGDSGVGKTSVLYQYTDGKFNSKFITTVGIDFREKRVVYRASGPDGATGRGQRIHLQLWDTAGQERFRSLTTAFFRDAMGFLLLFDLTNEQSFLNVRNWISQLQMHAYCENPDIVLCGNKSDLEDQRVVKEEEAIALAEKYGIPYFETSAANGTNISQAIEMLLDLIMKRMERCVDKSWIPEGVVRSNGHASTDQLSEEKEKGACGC

[7] = molecular target: Mitogen-activated protein kinase 11 (Homo sapiens, UniProt Q15759)
[8] = molecular target: Dual specificity mitogen-activated protein kinase kinase 2 (Homo sapiens, UniProt P36507)
[9] = molecular target: Tyrosine-protein kinase Yes (Homo sapiens, UniProt P07947)
LIM domain kinase 1 = LIM domain kinase 1 (Homo sapiens, UniProt P53667)
[10] = molecular target: Proto-oncogene tyrosine-protein kinase Src (Homo sapiens, UniProt P12931)
[11] = molecular target: T5, Serine/threonine-protein kinase Nek3 (Homo sapiens, UniProt P51956)
T5 sequence (P51956 whole entry): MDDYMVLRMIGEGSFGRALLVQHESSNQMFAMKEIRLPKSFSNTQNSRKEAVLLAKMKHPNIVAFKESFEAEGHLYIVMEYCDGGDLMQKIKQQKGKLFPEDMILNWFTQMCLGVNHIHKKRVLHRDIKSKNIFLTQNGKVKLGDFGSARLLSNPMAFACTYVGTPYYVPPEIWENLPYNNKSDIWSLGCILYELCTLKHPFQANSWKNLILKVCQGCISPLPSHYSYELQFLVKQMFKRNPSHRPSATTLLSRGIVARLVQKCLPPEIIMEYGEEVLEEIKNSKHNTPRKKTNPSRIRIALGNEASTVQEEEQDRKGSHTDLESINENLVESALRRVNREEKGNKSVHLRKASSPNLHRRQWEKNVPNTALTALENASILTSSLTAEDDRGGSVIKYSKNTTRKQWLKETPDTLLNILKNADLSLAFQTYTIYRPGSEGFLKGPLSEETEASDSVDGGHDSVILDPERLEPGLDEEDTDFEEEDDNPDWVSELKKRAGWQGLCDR

[12] = molecular target: Putative heat shock protein HSP 90-beta 2 (Homo sapiens, UniProt Q58FF8)
Also: in the data inactive means no Kd found up to 30 µM.

Proto-oncogene tyrosine-protein kinase Src, sequence (P12931 2-536 limits assumed): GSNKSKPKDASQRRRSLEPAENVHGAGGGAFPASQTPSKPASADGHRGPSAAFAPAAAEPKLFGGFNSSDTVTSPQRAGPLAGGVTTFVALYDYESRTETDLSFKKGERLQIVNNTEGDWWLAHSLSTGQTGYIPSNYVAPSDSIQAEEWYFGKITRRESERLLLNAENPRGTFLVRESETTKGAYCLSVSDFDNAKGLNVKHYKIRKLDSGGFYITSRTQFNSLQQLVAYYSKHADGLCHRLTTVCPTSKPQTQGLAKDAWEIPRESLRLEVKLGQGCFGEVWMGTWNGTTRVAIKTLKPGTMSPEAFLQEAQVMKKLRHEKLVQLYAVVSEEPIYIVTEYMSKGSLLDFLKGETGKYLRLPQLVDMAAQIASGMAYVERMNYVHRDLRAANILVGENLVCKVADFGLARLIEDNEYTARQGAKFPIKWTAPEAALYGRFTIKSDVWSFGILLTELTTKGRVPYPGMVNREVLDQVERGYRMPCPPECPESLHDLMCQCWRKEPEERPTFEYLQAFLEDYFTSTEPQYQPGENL
Mitogen-activated protein kinase 11, sequence (Q15759 whole entry): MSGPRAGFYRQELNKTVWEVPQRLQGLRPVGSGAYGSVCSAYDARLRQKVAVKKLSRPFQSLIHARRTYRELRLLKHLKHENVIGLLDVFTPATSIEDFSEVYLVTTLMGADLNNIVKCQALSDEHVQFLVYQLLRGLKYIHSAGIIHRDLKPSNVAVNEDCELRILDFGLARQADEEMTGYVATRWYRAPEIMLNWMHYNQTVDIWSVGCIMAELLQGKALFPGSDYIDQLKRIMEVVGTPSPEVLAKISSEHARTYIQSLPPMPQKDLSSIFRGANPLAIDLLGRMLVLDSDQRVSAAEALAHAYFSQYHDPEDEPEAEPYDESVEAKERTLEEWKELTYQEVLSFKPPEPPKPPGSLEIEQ
Fibroblast growth factor receptor 1, sequence (P11362 whole entry): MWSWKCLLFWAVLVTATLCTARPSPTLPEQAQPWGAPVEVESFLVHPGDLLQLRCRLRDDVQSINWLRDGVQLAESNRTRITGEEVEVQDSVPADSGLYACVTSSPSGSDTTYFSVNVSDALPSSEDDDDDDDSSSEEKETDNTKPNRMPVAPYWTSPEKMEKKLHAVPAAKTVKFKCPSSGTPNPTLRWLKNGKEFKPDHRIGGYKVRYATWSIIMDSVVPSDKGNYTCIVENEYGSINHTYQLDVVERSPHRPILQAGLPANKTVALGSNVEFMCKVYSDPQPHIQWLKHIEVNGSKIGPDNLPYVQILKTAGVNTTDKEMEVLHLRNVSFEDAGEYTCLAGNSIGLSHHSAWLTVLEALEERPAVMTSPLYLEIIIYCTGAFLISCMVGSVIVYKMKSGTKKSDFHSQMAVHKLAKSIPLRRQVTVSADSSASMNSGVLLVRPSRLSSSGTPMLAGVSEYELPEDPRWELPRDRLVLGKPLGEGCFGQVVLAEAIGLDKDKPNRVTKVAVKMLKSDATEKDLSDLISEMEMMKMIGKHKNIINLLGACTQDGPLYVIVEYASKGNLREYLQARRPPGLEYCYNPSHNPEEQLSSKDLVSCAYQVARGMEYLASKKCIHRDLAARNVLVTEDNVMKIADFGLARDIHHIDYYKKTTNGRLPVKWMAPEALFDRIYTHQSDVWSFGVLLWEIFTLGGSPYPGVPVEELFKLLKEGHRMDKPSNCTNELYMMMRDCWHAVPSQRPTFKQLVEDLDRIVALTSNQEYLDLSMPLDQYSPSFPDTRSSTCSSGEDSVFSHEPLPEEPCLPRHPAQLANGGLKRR
Interleukin-1 receptor-associated kinase 1, sequence (P51617 whole entry): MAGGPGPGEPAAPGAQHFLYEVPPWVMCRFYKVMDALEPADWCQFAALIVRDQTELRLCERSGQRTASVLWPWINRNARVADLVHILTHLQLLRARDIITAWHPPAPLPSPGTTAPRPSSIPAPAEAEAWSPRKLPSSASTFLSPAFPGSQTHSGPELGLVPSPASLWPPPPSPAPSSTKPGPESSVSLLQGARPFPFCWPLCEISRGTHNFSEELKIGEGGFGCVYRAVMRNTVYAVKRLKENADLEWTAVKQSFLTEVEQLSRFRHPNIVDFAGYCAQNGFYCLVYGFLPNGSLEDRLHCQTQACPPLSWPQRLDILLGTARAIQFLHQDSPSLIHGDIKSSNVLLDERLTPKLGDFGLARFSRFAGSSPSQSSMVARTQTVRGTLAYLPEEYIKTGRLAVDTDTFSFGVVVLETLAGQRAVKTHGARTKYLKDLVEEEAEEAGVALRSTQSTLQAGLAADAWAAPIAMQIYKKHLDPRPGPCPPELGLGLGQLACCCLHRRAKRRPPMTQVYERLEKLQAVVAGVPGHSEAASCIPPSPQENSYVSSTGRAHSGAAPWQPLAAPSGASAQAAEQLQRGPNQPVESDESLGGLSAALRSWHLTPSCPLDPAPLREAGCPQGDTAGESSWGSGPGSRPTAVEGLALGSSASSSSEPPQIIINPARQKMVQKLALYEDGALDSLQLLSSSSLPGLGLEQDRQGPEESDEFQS
Dual specificity mitogen-activated protein kinase kinase 2, sequence (P36507 whole entry): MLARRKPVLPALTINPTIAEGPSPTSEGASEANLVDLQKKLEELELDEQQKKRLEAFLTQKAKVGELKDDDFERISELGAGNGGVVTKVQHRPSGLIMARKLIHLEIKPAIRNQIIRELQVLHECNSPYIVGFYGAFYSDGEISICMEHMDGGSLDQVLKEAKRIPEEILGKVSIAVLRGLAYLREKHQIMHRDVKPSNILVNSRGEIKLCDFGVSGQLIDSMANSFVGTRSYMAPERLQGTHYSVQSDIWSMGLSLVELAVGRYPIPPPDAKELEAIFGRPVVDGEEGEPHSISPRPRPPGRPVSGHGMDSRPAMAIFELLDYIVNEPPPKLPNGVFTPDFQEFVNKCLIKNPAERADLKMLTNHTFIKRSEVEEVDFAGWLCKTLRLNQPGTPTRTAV
Tyrosine-protein kinase Yes, sequence (P07947 whole entry, the tested form may be a part): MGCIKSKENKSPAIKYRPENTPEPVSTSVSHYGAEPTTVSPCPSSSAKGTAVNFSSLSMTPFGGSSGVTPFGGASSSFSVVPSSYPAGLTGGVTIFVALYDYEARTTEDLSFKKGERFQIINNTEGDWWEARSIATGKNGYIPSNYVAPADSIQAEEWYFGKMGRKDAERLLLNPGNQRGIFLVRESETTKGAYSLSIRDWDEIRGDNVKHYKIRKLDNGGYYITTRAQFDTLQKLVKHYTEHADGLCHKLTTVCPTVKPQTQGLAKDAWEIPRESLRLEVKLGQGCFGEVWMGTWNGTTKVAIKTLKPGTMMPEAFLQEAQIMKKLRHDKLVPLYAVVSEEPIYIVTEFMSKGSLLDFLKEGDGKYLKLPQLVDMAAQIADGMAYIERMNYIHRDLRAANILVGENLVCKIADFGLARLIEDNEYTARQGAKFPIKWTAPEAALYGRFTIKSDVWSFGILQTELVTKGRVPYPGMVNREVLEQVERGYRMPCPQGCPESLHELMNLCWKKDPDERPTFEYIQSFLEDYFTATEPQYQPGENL
LIM domain kinase 1, sequence (P53667 whole entry, the tested form may be a part): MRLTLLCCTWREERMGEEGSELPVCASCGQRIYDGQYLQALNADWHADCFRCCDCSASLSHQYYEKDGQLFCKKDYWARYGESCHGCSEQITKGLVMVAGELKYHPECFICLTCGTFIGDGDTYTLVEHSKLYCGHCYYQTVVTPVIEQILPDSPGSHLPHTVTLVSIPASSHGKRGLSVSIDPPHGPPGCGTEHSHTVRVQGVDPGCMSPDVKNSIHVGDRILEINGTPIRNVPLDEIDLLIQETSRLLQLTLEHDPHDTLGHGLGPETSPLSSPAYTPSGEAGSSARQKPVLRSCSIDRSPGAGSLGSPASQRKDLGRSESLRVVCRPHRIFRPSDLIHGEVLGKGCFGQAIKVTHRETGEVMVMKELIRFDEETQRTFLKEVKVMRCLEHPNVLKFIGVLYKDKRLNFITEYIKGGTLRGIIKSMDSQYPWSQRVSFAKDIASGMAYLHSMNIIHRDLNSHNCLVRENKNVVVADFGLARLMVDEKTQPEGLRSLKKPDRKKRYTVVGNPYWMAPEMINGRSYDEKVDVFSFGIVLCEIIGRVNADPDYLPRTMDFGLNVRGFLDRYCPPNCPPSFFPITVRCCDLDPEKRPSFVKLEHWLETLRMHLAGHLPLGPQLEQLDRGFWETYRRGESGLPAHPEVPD
Putative heat shock protein HSP 90-beta 2, sequence (Q58FF8 whole entry): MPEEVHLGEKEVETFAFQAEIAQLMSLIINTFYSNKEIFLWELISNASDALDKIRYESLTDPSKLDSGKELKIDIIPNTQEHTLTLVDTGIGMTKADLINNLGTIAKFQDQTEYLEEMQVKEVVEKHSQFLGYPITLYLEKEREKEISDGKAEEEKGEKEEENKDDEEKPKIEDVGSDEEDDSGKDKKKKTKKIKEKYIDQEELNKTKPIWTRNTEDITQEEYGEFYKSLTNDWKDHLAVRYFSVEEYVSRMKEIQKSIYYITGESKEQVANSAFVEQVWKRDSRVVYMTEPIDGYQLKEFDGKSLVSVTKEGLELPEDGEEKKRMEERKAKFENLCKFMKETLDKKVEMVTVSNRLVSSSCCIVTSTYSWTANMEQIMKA

Row | SMILES | Kd [1] | Kd (Aurora kinase A) | Kd [2] | Kd [3] | Kd [4] | Kd [5] | Kd [6] | Kd [7] | Kd [8] | Kd [9] | Kd (LIM domain kinase 1) | Kd [10] | Kd [11] | Kd [12]
1 | CCCCCCCCCCCCCCCCCCOP(=O)([O-])OC1CC[N+](C)(C)CC1 [PERIFOSINE] | > 30 µM (inactive) | > 30 µM (inactive) | > 30 µM (inactive) | > 30 µM (inactive) | > 30 µM (inactive) | > 30 µM (inactive) | > 30 µM (inactive) | > 30 µM (inactive) | > 30 µM (inactive) | > 30 µM (inactive) | > 30 µM (inactive) | > 30 µM (inactive) | > 30 µM (inactive) | > 30 µM (inactive)
2 | Cc1nc(Nc2n[nH]c3c2CN(C(=O)N[C@H](CN(C)C)c2ccccc2)C3(C)C)c2sccc2n1 [PF-03758309] | > 30 µM (inactive) | 0.981 µM (active) | > 30 µM (inactive) | > 30 µM (inactive) | > 30 µM (inactive) | 0.208 µM (active) | > 30 µM (inactive) | > 30 µM (inactive) | > 30 µM (inactive) | 5.56 µM (active) | > 30 µM (inactive) | 2.08 µM (active) | > 30 µM (inactive) | > 30 µM (inactive)
3 | Cc1cnc(NC(=O)Nc2cc(Br)c(C)cc2OC[C@@H]2CNCCO2)cn1 [RABUSERTIB] | > 30 µM (inactive) | > 30 µM (inactive) | > 30 µM (inactive) | > 30 µM (inactive) | > 30 µM (inactive) | > 30 µM (inactive) | > 30 µM (inactive) | > 30 µM (inactive) | > 30 µM (inactive) | > 30 µM (inactive) | > 30 µM (inactive) | > 30 µM (inactive) | > 30 µM (inactive) | > 30 µM (inactive)
4 | N#CC1(c2ccc(NC(=O)c3cccnc3NCc3ccncc3)cc2)CCCC1 [RIVOCERANIB] | > 30 µM (inactive) | > 30 µM (inactive) | > 30 µM (inactive) | > 30 µM (inactive) | > 30 µM (inactive) | > 30 µM (inactive) | > 30 µM (inactive) | > 30 µM (inactive) | > 30 µM (inactive) | > 30 µM (inactive) | > 30 µM (inactive) | > 30 µM (inactive) | > 30 µM (inactive) | > 30 µM (inactive)
5 | O=c1[nH]ccc2cc(OC3CCNCC3)ccc12 [SAR-407899 FREE BASE] | 0.016 µM (active) | > 30 µM (inactive) | > 30 µM (inactive) | > 30 µM (inactive) | > 30 µM (inactive) | > 30 µM (inactive) | > 30 µM (inactive) | > 30 µM (inactive) | > 30 µM (inactive) | > 30 µM (inactive) | > 30 µM (inactive) | > 30 µM (inactive) | > 30 µM (inactive) | > 30 µM (inactive)
6 | Cn1cc(-c2cnn3c(N)c(Br)c([C@@H]4CCCNC4)nc23)cn1 [SCH-900776] | > 30 µM (inactive) | > 30 µM (inactive) | > 30 µM (inactive) | > 30 µM (inactive) | 4.01 µM | > 30 µM (inactive) | > 30 µM (inactive) | > 30 µM (inactive) | 2.36 µM (active) | > 30 µM (inactive) | > 30 µM (inactive) | > 30 µM (inactive) | > 30 µM (inactive) | > 30 µM (inactive)
7 | CO[C@H]1C[C@@H]2CC[C@@H](C)[C@@](O)(O2)C(=O)C(=O)N2CCCC[C@H]2C(=O)O[C@H]([C@H](C)C[C@@H]2CC[C@@H](O)[C@H](OC)C2)CC(=O)[C@H](C)/C=C(\C)[C@@H](O)[C@@H](OC)C(=O)[C@H](C)C[C@H](C)/C=C/C=C/C=C/1C [SIROLIMUS] | > 30 µM (inactive) | > 30 µM (inactive) | > 30 µM (inactive) | > 30 µM (inactive) | > 30 µM (inactive) | > 30 µM (inactive) | > 30 µM (inactive) | > 30 µM (inactive) | > 30 µM (inactive) | > 30 µM (inactive) | > 30 µM (inactive) | > 30 µM (inactive) | > 30 µM (inactive) | > 30 µM (inactive)
